Results as given in patent publication US20070202120A1, “Yellow Fever Mosquito Deoxyribonucleoside Kinases And Its Use” (priority 2003, published 2007).

Experiments:
[1] = tested on: deoxyribonucleoside kinases from Aedes aegypti (PZG318); test: Nucleoside kinase activity (DE-81 filter paper assay, tritium labelled substrates) in extracts of KY895 cells transformed with PZG318; format: biochemical; details: for Phosphorylation / activation by the mosquito deoxyribonucleoside kinase (in words): extract of KY895 transformed with PZG318; for Deoxyribonucleoside kinase specific activity in extract: substrate at fixed concentration of 100 μM
Description: (§1) This example describes how E. coli KY895 were transformed with the plasmid obtained according to Example 1, in order to express mosquito dNK.
(§2) KY895 cells were transformed by the expression plasmid of Example 1 using standard techniques, e.g. as described by e.g. Sambrook et al. [Sambrook et al.; Molecular Cloning: A Laboratory Manual, Cold Spring Harbor Lab., Cold Spring Harbor, N.Y. 1989].
(§3) Transformed cells were grown to an OD600 nm of 0.5-0.6 in LB/Ampicillin (100 μg/ml) medium at 37° C. and protein expression was induced by addition of 100 μM IPTG. The cells were further grown for 4 h at 25° C. and subsequently harvested by centrifugation. The cell pellet was subjected to sonification in the binding buffer A (20 mM NaPO4 pH 7,3; 150 mM NaCl; 10% Glycerol; and 0.1% Triton X-100) and subjected to centrifugation at 10,000×g for 30 minutes. Cell free extract was used for enzymatic activity assays.
Nucleoside kinase activities were determined by initial velocity measurments based on four time sample by the DE-81 filter paper assay using tritium labelled substrates. The assays were performed as described by Munch-Petersen et al. [Munch-Petersen B, Knecht W, Lenz C, Søndergaard L, Piskur J: Functional expression of a multisubstrate deoxyribonucleoside kinase from Drosophila melanogaster and its C-terminal deletion mutants; J. Biol. Chem. 2000 275 6673-6679].
The protein concentration was determined according to Bradford with BSA as standard protein [Bradford M M: A rapid and sensitive method for the quantitation of microgram quantities of protein utilizing the principle of protein-dye binding; Anal. Biochem. 1976 72 248-254]. SDS-PAGE was done according to the procedure of Laemmli[Laemmil U K: Cleavage of structural proteins during the assembly of the head of bacteriophage T4; Nature 1970 227 680-685], and proteins were visualized by Coomassie staining to verify recombinant protein expression.
The natural deoxyribonucleoside and deoxyribonucleoside analogs were tested at a fixed concentration of 100 μM. The specific activity in each extract is given in mU/ml.

Extracts of KY895 Cells = test: Nucleoside kinase activity (DE-81 filter paper assay) in control extracts of KY895 cells (cells only, empty vector pGEX-2T); format: biochemical, E. coli; details: extract of KY895 transformed with pGEX-2T (empty vector); substrate 100 μM; n.d. = not detectable
Description: as §1, §2, §3
Nucleoside kinase activities were determined by initial velocity measurments based on four time sample by the DE-81 filter paper assay using tritium labelled substrates. […]
The protein concentration was determined according to Bradford with BSA as standard protein [Bradford M M: A rapid and sensitive method for the quantitation of microgram quantities of protein utilizing the principle of protein-dye binding; Anal. Biochem. 1976 72 248-254]. […]

KY895 = test: Growth of E. coli KY895 on nucleoside analog plates, controls (cells only, empty vector pGEX-2T); format: cell-based; details: 24 hours at 37° C.
Description: (§4) Deoxyribonucleoside kinases are of interest as suicide-genes to be used in gene-mediated therapy of cancer or viral infections. In this example the potential of the mosquito kinase of the invention to convert different nucleoside analogs are compared to that of the human Herpes simplex virus 1 thymidine kinase (HSV1-TK) in a bacterial test system.
(§5) The experiment was carried out essentially as described by Knecht et al. [Knecht W. Munch-Petersen B and Piskur J: identification of residues involved in the specificity and regulation of the highly efficient multisubstrate deoxyribonucleoside kinase from Drosophila melanogaster; J. Mol. Biol. […] 301 827-837]. Briefly, overnight cultures of transformed KY895 were diluted 200-fold in 10% glyercol and 2 μl drops of the dilutions were spotted on M9 minimal medium plates [Ausubel F, Brent R, Kingston R E, Moore D D, Seldman J G, Smitf J A & Struhl K (Eds.): Short protocols in molecular biology; 3rd edition (1995) pp. 1-2, Wiley, USA] supplemented with 0.2% glucose, 0.1% casamino acids, 100 μg/ml ampicillin and with or without nucleoside analogs. Growth was inspected visually after 24 hours of incubation at 37° C.
pGEX-2T is the empty vector and is available from Amersham-Pharmacia;

[2] = tested on: KY895 transformed with pGEX-2T-HSV1-TK; test: Growth of transformed E. coli KY895 on nucleoside analog plates, transformed with pGEX-2T-HSV1-TK; format: cell-based; details: 24 hours at 37° C.
Description: as §4, §5

[3] = tested on: KY895 transformed with PZG318; test: Growth of transformed E. coli KY895 on nucleoside analog plates, transformed with PZG318 (mosquito dNK kinase); format: cell-based
Description: as §4, §5

Compound: Nc1nc2c(ncn2COCCO)c(=O)[nH]1 [ACV, acyclovir]
- Phosphorylation / activation by the mosquito deoxyribonucleoside kinase (in words) [1]: also activated
- Deoxyribonucleoside kinase specific activity in extract [1]: 0.3 mU/ml

Compound: Nc1nc(O)c2ncn(COC(CO)CO)c2n1 [GCV, gancyclovir]
- Phosphorylation / activation by the mosquito deoxyribonucleoside kinase (in words) [1]: also activated
- Deoxyribonucleoside kinase specific activity in extract [1]: 0.7 mU/ml

Compound: Cc1cn([C@H]2C[C@H](O)[C@@H](CO)O2)c(=O)[nH]c1=O [Thd, thymidine]
- Phosphorylation / activation by the mosquito deoxyribonucleoside kinase (in words) [1]: able to phosphorylate
- Deoxyribonucleoside kinase specific activity in extract [1]: 125 mU/ml

Compound: Nc1ncnc2c1ncn2[C@H]1C[C@H](O)[C@@H](CO)O1 [dAdo, deoxyadenosine]
- Phosphorylation / activation by the mosquito deoxyribonucleoside kinase (in words) [1]: able to phosphorylate
- Deoxyribonucleoside kinase specific activity in extract [1]: 364 mU/ml

Compound: Nc1ccn([C@H]2C[C@H](O)[C@@H](CO)O2)c(=O)n1 [dCyt, deoxycytidine]
- Phosphorylation / activation by the mosquito deoxyribonucleoside kinase (in words) [1]: able to phosphorylate
- Deoxyribonucleoside kinase specific activity in extract [1]: 124.5 mU/ml
- Deoxyribonucleoside kinase specific activity in extract (Extracts of KY895 Cells): 0.1 mU/ml

Compound: Nc1ccn([C@@H]2O[C@H](CO)[C@@H](O)C2(F)F)c(=O)n1 [dFdC, 2′,2′-difluorodeoxycytidine]
- dFdC LD100 (KY895; KY895 cells only): >100 nM
- dFdC LD100 (KY895; KY895 transformed with pGEX-2T (empty vector)): >100 nM
- dFdC LD100 [2]: >100 nM
- Phosphorylation / activation by the mosquito deoxyribonucleoside kinase (in words) [1]: much stronger than dCyt
- Deoxyribonucleoside kinase specific activity in extract [1]: 228 mU/ml
- LD100 with mosquito dNK kinase (PZG318) lower than that of HSV1-TK ([3]; KY895 on nucleoside analog plates, PZG318 versus HSV1-TK): at least 30 fold
- dFdC LD100 ([3]; KY895 transformed with PZG318, M9 plates, growth inspected after 24 hours at 37° C.): 3.16 nM

Compound: Nc1nc2c(ncn2[C@H]2C[C@H](O)[C@@H](CO)O2)c(=O)[nH]1 [dGuo, deoxyguanosine]
- Phosphorylation / activation by the mosquito deoxyribonucleoside kinase (in words) [1]: able to phosphorylate
- Deoxyribonucleoside kinase specific activity in extract [1]: 214.7 mU/ml
